According to the NIST ThermoML archive (doi:10.1016/j.jct.2013.09.001):

Assays:
[1] = 101 kPa, Liquid; for viscosity: Concentric cylinders viscometry; for mass density: Vibrating tube method
[2] = xn = mol fraction of the nth substance listed; settings: 101 kPa, Liquid; for viscosity: Concentric cylinders viscometry; for mass density: Vibrating tube method

CN(CCO)CCO [N-methyldiethanolamine]
[1]
Settings	mass density [kg/m3]	viscosity [mPa·s]
293.15 K	1040.6	103.3
303.15 K	1032.8	57.3
313.15 K	1025.4	34.1
323.15 K	1017.8	21.6
333.15 K	1010	14.3
343.15 K	1002.3	9.9
353.15 K	–	7.2

CC(=O)[O-].CCCCn1cc[n+](C)c1 [1-butyl-3-methylimidazolium acetate] + CN(CCO)CCO
[2]
Settings	mass density, x2 = 0 [kg/m3]	mass density, x2 = 0.2 [kg/m3]	mass density, x2 = 0.4 [kg/m3]	mass density, x2 = 0.6 [kg/m3]	mass density, x2 = 0.8 [kg/m3]	viscosity, x2 = 0 [mPa·s]	viscosity, x2 = 0.2 [mPa·s]	viscosity, x2 = 0.4 [mPa·s]	viscosity, x2 = 0.6 [mPa·s]	viscosity, x2 = 0.8 [mPa·s]
293.15 K	1056.1	1052.6	1049.5	1046	1043.4	549.9	369.6	254.3	164.4	117.9
303.15 K	1049.6	1046.1	1043	1039.2	1036.4	257.4	188.9	139.8	94.9	68.9
313.15 K	1043.5	1040.1	1037	1033.1	1029.8	135.5	106.6	83.2	58.8	43.1
323.15 K	1037.4	1034.1	1030.9	1026.8	1023.1	78.4	65	52.9	38.7	28.4
333.15 K	1031.3	1028.1	1024.7	1020.5	1016.4	49	42.3	35.6	26.7	19.7
343.15 K	1025.4	1022.3	1018.8	1014.4	1009.8	32.5	29	25.1	19.3	14.2
353.15 K	–	–	–	–	–	22.7	20.7	18.3	14.4	10.6

CN(CCO)CCO [N-methyldiethanolamine] + CC(=O)[O-].CCCCn1cc[n+](C)c1
[2], x1 = 1
Settings	mass density [kg/m3]	viscosity [mPa·s]
293.15 K	1040.6	103.3
303.15 K	1032.8	57.3
313.15 K	1025.4	34.1
323.15 K	1017.8	21.6
333.15 K	1010	14.3
343.15 K	1002.3	9.9
353.15 K	–	7.2

OCCNCCO [diethanolamine] + CC(=O)[O-].CCCCn1cc[n+](C)c1
[2], x1 = 1
Settings	mass density [kg/m3]	viscosity [mPa·s]
293.15 K	1097.4	–
303.15 K	1090.5	386.6
313.15 K	1083.9	189.7
323.15 K	1077.1	101.2
333.15 K	1070.3	57.9
343.15 K	1063.5	35.3
353.15 K	–	22.7

CC(=O)[O-].CCCCn1cc[n+](C)c1 [1-butyl-3-methylimidazolium acetate] + OCCNCCO
[2]
Settings	mass density, x2 = 0 [kg/m3]	mass density, x2 = 0.2 [kg/m3]	mass density, x2 = 0.4 [kg/m3]	mass density, x2 = 0.6 [kg/m3]	mass density, x2 = 0.8 [kg/m3]	viscosity, x2 = 0 [mPa·s]	viscosity, x2 = 0.2 [mPa·s]	viscosity, x2 = 0.4 [mPa·s]	viscosity, x2 = 0.6 [mPa·s]	viscosity, x2 = 0.8 [mPa·s]
293.15 K	1056.1	1058.7	1062.8	1068.8	1079.7	549.9	425	319.4	286.8	400.1
303.15 K	1049.6	1052.2	1056.3	1062.3	1073.1	257.4	208.3	176.1	150.8	197
313.15 K	1043.5	1046.2	1050.3	1056.2	1067	135.5	114	95.9	86.8	106.3
323.15 K	1037.4	1040.1	1044.2	1050.2	1060.7	78.4	68.4	59.2	53.8	62.2
333.15 K	1031.3	1034.1	1038.1	1044.1	1054.4	49	43.9	38.9	35.4	38.9
343.15 K	1025.4	1028.2	1032.2	1038.1	1048.3	32.5	29.8	26.9	24.6	25.8
353.15 K	–	–	–	–	–	22.7	21.3	19.4	17.8	17.9

OCCNCCO [diethanolamine]
[1]
Settings	mass density [kg/m3]	viscosity [mPa·s]
293.15 K	1097.4	–
303.15 K	1090.5	386.6
313.15 K	1083.9	189.7
323.15 K	1077.1	101.2
333.15 K	1070.3	57.9
343.15 K	1063.5	35.3
353.15 K	–	22.7

CC(=O)[O-].CCCCn1cc[n+](C)c1 [1-butyl-3-methylimidazolium acetate]
[1]
Settings	mass density [kg/m3]	viscosity [mPa·s]
293.15 K	1056.1	549.9
303.15 K	1049.6	257.4
313.15 K	1043.5	135.5
323.15 K	1037.4	78.4
333.15 K	1031.3	49
343.15 K	1025.4	32.5
353.15 K	–	22.7
